Laboratory results reported in ChEMBL document CHEMBL4823315 (Bioorg Med Chem Lett, 2021).

How the values were obtained:
[1] = Inhibition of p70S6K (unknown origin); set-up: species or system Homo sapiens
[2] = Inhibition of Akt/p70S6K in human MDA-MB-436 cells assessed as inhibition of S6 phosphorylation; type: cell-based
[3] = target: Serine/threonine-protein kinase AKT (Homo sapiens, UniProt P31751+Q9Y243+P31749); experiment: Inhibition of Akt (unknown origin); type: protein assay
[4] = target: Voltage-gated inwardly rectifying potassium channel KCNH2 (Homo sapiens, UniProt Q12809); experiment: Inhibition of human ERG by patch clamp assay
[5] = target: hERG (KCNH2) (Homo sapiens, UniProt Q12809); experiment: Inhibition of human ERG at 10 uM by patch clamp assay
Sequence of hERG (KCNH2) (Q12809 whole entry): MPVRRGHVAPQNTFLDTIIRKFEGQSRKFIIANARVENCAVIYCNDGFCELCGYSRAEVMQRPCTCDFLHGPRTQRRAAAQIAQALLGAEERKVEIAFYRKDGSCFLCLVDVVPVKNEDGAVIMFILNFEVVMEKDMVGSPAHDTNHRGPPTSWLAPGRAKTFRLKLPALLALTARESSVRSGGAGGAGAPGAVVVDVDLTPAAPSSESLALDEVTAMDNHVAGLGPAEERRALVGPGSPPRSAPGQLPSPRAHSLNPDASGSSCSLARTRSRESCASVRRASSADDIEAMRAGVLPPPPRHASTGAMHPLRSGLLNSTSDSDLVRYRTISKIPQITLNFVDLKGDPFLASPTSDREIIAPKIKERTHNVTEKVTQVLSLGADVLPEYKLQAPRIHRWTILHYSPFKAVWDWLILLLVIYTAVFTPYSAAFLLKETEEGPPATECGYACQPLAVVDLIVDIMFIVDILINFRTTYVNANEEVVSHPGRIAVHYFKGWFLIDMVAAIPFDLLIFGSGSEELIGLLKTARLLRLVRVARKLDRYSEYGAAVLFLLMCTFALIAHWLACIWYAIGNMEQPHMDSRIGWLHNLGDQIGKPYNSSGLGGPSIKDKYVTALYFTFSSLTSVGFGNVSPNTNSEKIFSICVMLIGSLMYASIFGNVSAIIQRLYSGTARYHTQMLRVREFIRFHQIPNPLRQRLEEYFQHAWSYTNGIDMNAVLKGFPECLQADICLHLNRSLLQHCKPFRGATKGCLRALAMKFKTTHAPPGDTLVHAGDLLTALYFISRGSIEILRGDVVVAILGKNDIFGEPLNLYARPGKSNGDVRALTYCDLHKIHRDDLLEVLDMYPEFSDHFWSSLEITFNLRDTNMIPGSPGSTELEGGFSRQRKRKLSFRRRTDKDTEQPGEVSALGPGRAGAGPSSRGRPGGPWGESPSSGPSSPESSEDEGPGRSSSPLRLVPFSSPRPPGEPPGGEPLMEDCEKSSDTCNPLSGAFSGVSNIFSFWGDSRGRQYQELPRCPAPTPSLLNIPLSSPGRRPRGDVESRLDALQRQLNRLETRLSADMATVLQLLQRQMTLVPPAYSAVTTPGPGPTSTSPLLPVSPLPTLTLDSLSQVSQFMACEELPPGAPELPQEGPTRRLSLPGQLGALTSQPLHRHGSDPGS

Sequence of Voltage-gated inwardly rectifying potassium channel KCNH2 (Q12809 whole entry): as above

IC50 [1] [nM]	IC50 [2] [nM]	IC50 [3] [nM]	Structure (SMILES)	IC50 [4] [nM]	inhibition at 10 µM [5] [%]
1.6	400	> 1000	Cn1cc(-c2ccc(F)c(C(F)(F)F)c2)nc1C1CCN(c2ncnc(N)c2-c2cccc(F)c2)CC1		
2.3	700	880	Cn1cc(-c2ccc(F)c(C(F)(F)F)c2)nc1C1CCN(c2ncnc(N)c2-c2cncnc2)CC1		
2.6		4.2	C=Cc1c(N)ncnc1N1CCC(c2nc(-c3ccc(F)c(C(F)(F)F)c3)cn2CCN2CCC2)CC1	930	
2.1	600	850	Cc1ncc(-c2c(N)ncnc2N2CCC(c3nc(-c4ccc(F)c(C(F)(F)F)c4)cn3C)CC2)s1		
4.4	1900	> 1000	NCC(c1ccc(F)cc1)N1CCN(c2ncnc(N)c2-c2ccc(F)cc2)CC1 (configuration not stated)		
2	49000	4	CCc1c(N)ncnc1N1CCC(c2nc(-c3ccc(F)c(C(F)(F)F)c3)cn2CCN2CCC2)CC1	1600	
6.3	2600	> 1000	NCC(c1ccccc1)N1CCN(c2ncnc(N)c2-c2ccc(F)cc2)CC1 (configuration not stated)		
1.8	55000	6.9	CN(C)CCn1cc(-c2ccc(F)c(C(F)(F)F)c2)nc1C1CCN(c2ncnc(N)c2C#N)CC1	1600	
4.2	1500	> 1000	Nc1ncnc(N2CCN(C(CN3CCC3)c3ccc(C(F)(F)F)cc3)CC2)c1-c1ccc(F)cc1 (configuration not stated)		
102	22000	> 1000	Cn1cc(-c2ccc(F)c(C(F)(F)F)c2)nc1C1CCN(c2cc(N)ncn2)CC1		
14	2900	> 1000	NCC(c1ccc(F)c(C(F)(F)F)c1)N1CCN(c2ncnc(N)c2-c2ccc(F)cc2)CC1 (configuration not stated)		
			Cn1cc(-c2ccc(F)c(C(F)(F)F)c2)nc1C1CCN(c2ncnc3[nH]ncc23)CC1 [LY-2584702]		29
0.8	52000	2.2	N#Cc1c(N)ncnc1N1CCC(c2nc(-c3ccc(F)c(C(F)(F)F)c3)cn2CCN2CCC2)CC1		
2	400	930	Cn1cc(-c2ccc(F)c(C(F)(F)F)c2)nc1C1CCN(c2ncnc(N)c2-c2ccncc2)CC1		
18		350	Nc1ncnc(N2CCC(c3nc(-c4ccc(F)c(C(F)(F)F)c4)cn3CCN3CCCCC3)CC2)c1-c1ccc(F)cc1		
3	800	> 1000	Cn1cc(-c2ccc(F)c(C(F)(F)F)c2)nc1C1CCN(c2ncnc(N)c2-c2ccccc2F)CC1		
